The text below walks through data of US10881642B2, “Autophagy enhancer and use thereof” (Industry-Academic Cooperation Foundation, Yonsei University, priority 2016, dated 2021).

This experiment deals with HeLa cells. The experiment can be described thus: Acridine orange staining of acidic vesicular organelles. Format: cell-based. The note with it: 24 hrs. The protocol:
FIG. 3A is the graph showing the percentage of nuclear translocated TFEB for which TFEB-GFP HeLa cells were treated with MSL compound for 4 hrs and then nuclei of the cells were stained with DAPI. FIG. 3B is the results of the experiments in which HeLa cells were incubated in the presence of MSL compound or vehicle control for 24 hrs and then the acidic vesicular organelles formed were stained with acridine orange. FIG. 3C is the results of the experiments in which TFEB-GFP HeLa cells were treated with MSL compound or vehicle control for 4 hrs and then the cells were immunoblotted with the antibodies indicated. […]
Screening of autophagy enhancer. […] Firefly luciferase was determined after mixing 5 μl of lysate with 25 μl of Luciferase Assay Reagent II. Renilla luciferase was then determined after further addition of 20 ul of Stop&Glo Reagent. […] Cytotoxicity was determined by the measurement of LDH release in cell culture media using the LDH kit (Roche), according to the protocol from the manufacturer. […] Imaging and image quantification. […] Formation of acidic vesicular organelles was quantitated by staining the cells with acridine orange (Invitrogen, 5 ug/ml, 10 min). […] Cells or tissues were solubilized in lysis buffer supplemented with protease and phosphatase inhibitors and protein concentration was measured by the Bradford method. […] Protein levels were quantified by using ImageJ software analysis. […]

With `CSc1oc(-c2ccccc2)nc1S(=O)(=O)c1ccc(F)cc1` [MSL], the “red fluorescence after acridine orange staining (lysosomal acidification and content)” value is on record as “significantly increased”.
